Experimental data published in patent US7192932B1, “Use of immunomodulating agents” (Lauras AS, priority 1997, dated 2007).
Several values for one entry are separate records, joined by “and”; a condition that tells them apart may be missing. Equal entries are not always repeated. Marks after values point to notes of the source that are not given here.

Experiments:
[1] = tested on: peripheral blood CD3+ T cells; experiment: TCR/CD3 (anti-CD3) stimulated T cell proliferation, [3H]-thymidine incorporation; type: cell-based, human
Method: (§1) Human peripheral blood CD3+ T cells were purified by negative selection from 50 ml of heparin-treated blood from normal healthy donors (Ullevaal University Hospital Blood Center, Oslo. Norway) or patients. Briefly, peripheral blood mononuclear cells were isolated by density gradient (Lymphoprep, NycoMed, Oslo, Norway) centrifugation followed by negative selection using monodisperse magnetic beads directly coated with antibodies to CD14 and CD19 and rat anti-mouse IgG beads coated with antibodies to CD56 and a magnet. Magnetic beads were all from Dynal (Oslo, Norway, cat. no. 111.12, 111.04, and 110.11. respectively) whereas anti-CD56 antibody was from Pharmingen (San Diego, Calif., cat. no. 31660.d). All steps were performed at 4° C.
as §1, with “Peripheral blood” for “Human peripheral blood”, “Center, Oslo,” for “Center, Oslo.”, “selection using,” for “selection using”, “and 110.11,” for “and 110.11.”, “Calif., eat.” for “Calif., cat.”
Proliferation assays were performed by incubation of 0.75×10^6 CM+ T cells/ml in a 100 μl volume in that-bottom 96-well microtiter plates. Activation was achieved by subsequent addition of monodisperse magnetic beads coated with sheep anti-mouse IgG (Dynal. cat. no. 110.02) at a cell:bead ratio of 1:1 followed by addition of antiCD3 (clone SpvT3b) at a final dilution of 1:125,000 for the experiments shown. The optimal concentration of antibody was titrated carefully in the initial setup and parallel experiments at several different dilutions of antibody was always performed. Proliferation was analyzed by incubating, cells for 72 hours during which [^3H]thymidine was included for the last 16 hours. Cells were washed and harvested onto filters using a Scatron harvester (Suffolk, UK) and subsequently analyzed by β-scintillation counting. cAMP analogs, when used, were added 30 min prior to activation by addition of […] antibodies. 8-CPT-cAMP was from Sigorna (St. Louis, Mo.) and Sp- and Rp-8-Br-cAMPS were from BioLog Life Science Company (Bremen, Germany) and were all dissolved to concentrations of 4 to 10 mM in PBS and concentrations calculated using the extinction coefficients given by the manufacturer.

[2] = tested on: peripheral blood CD3+ T cells; experiment: TCR/CD3 stimulated proliferation of liposome-transfected CD3+ T cells treated with 8-CPT-cAMP; type: cell-based, human; conditions: for IC50: FIG. 10
Method: FIG. 8. Reversal of cAMP-mediated inhibition of TUR/CD3 stimulated T cell proliferation by the use of ribozyme to the RIα subunit of protein kinase A type I. TCR/CD3 stimulated proliferation of peripheral blood CD3+ T cells from normal healthy blood donor following treatment with liposomes alone (mock) or with liposomes and RIα ribozyme (RIα rbz, 10 μM) in the absence (solid bars) and presence (open bars) of 8-CPT-cAMP (12,5 μM).
FIG. 9. Reversal of cAMP-mediated inhibition of TCR/CD3 stimulated T cell proliferation by the use of competitor peptide to compete the TCR/CD3 associated anchoring of RIα subunit of protein kinase A type I in T cells. TCR/CD3 stimulated proliferation of peripheral blood CD3+ T cells from normal healthy blood donor following treatment with liposomes alone (mock) or with increasing concentrations (25 to 100 μM) of a competitor peptide (Ht-31) that competes anchoring, to PKA type II or a control peptide (Ht31-P).
FIG. 10. TCR/CD3 stimulated proliferation of peripheral blood CD3+ T cells in the presence of increasing, concentrations of 8-CPT-cAMP. Normalized levels of proliferation of T cells mock transfected with liposomes only (solid circles, continuous line) or incubated with liposomes and Ht31 peptide (35 μM) to compete anchoring of protein kinase A type I (open circles, dotted line) was assessed as [^3H]-thymidine incorporation after 48 h during which [^3H]-thymidine was added for the last 18 h. Note: right shift of the IC50 (arrow) from 1,8 to 4,8 μM in the presence of […].
When transfected as synthetic RNA ribozyme or as a synthetic RNA ribozyme stabilized by incorporation of 2-deoxycytosine and 2-deoxy-uracil analogs into peripheral blood CD3+ T cells, the ribozyme reduced levels of RIα protein to approximately 20% of control levels by removing the RIα mRNA. By this strategy, the majority of protein kinase A type 1 was removed from the T cells. We then assessed the immune responsiveness of CD3+ T cells transfected with ribozyme compared to control (mock) transfected T cells measured as T cell proliferation after activation of T cells by stimulation of the T cell receptor/CD3 complex (TCR/CD3). In order to simulate a T cell dysfunction as that of HIV infection, with elevated levels of cAMP and increased activation of protein kinase A type 1, we treated normal T cells with low dose (12.5 around IC50) of the cAMP analog 8-(4-chlorophenyl)-thio-cAMPS (8-CPT-cAMP). […] For in vivo use pretreatment of ribozymes to allow cellular uptake or introduction into cells as minigenes will be necessary.
We incubated blood CD3+ T cells with increasing concentrations of Ht31 (SEQ. ID. NO 2) peptide. In order to facilitate uptake, cells were treated with liposomes in the presence or absence of-peptide. The optimal concentrations of DOTAP liposomes and anti-CD3 antibody were titrated carefully in order to maintain the membrane stability and normal TCR/CD3-dependent activation of the T cells. Cells were incubated for 20 hours with DOTAP/peptide and incubations continued in the absence (solid bars) or presence of 8-CPT-cAMP (6.25 μM, hatched bars) and activated to proliferation by stimulation of TCR/CD3 T cell immune responsiveness was assessed as [3H]thymidine incorporation.
Next, the effect of the competitor peptide (Ht-31, 35 μM) on T cell proliferation was examined in the presence of increasing concentrations of 8-CPT-cAMP and compared to mock transfected cells treated with the same concentrations of 8-CPT-cAMP (FIG. 10). As shown previously for normal peripheral blood T cells. […] Compared to the left-shifted curves observed with T cells from HIV-infected patients or patients with CIV due to elevated levels of endogenous cAMP activating PKA type 1, the right-shift observed here would be expected to normalize the situation in patients.

`Nc1ncnc2c1nc(Sc1ccc(Cl)cc1)n2[C@@H]1O[C@@H]2COP(=O)(O)O[C@H]2[C@H]1O` [8-CPT-cAMP, 8-(4-chlorophenylthio)cAMP, reference compound] was tested, and the “Hill coefficient of cAMP-inhibition curve” value ([1]; T cells from HIV seropositive individuals, n=18) was 1.19 (1.13–1.40), the “Inhibition of proliferation by 8-CPT-cAMP Hill coefficient” value ([1]; T cells from HIV+ asymptomatic patients, n = 8, median (25 to 75% range)) was 1.18(1.09–1.36)^b and the IC50 ([1]; T cells from HIV+ asymptomatic patients, n = 8, median (25 to 75% range), read-out: Inhibition of proliferation by 8-CPT-cAMP IC50) was 2.26 µM. The “Inhibition of proliferation by 8-CPT-cAMP Hill coefficient” value ([1]; T cells from HIV+ symptomatic patients, n = 10, median (25 to 75% range)) was 1.19(1.13–1.40)^o, the IC50 ([1]; T cells from HIV+ symptomatic patients, n = 10, median (25 to 75% range), read-out: Inhibition of proliferation by 8-CPT-cAMP IC50) was 1.87 µM and the IC50 ([1]; T cells from a healthy blood donor, FIG. 1B, read-out: IC50, inhibition of TCR/CD3 stimulated proliferation) was 6.11 µM. The IC50 ([1]; T cells from a representative HIV-infected patient (#10 in Table 2a), FIG. 1B, read-out: IC50, inhibition of TCR/CD3 stimulated proliferation) was 1.78 µM, the “Inhibition of proliferation by 8-CPT-cAMP Hill coefficient” value ([1]; T cells from normal controls, n = 8, median (25 to 75% range)) was 1.59(1.40–1.81) and the IC50 ([1]; T cells from normal controls, n = 8, median (25 to 75% range), read-out: Inhibition of proliferation by 8-CPT-cAMP IC50) was 4.59 µM. The “Inhibition of proliferation by 8-CPT-cAMP Hill coefficient” value ([1]; T cells from patients on triple combination therapy, n = 9, median (25 to 75% range)) was 1.35(1.33–1.68), the IC50 ([1]; T cells from patients on triple combination therapy, n = 9, median (25 to 75% range), read-out: Inhibition of proliferation by 8-CPT-cAMP IC50) was 2.59 µM and the “Inhibition of proliferation by 8-CPT-cAMP (−Hill coefficient)” value (“Inhibition … (−Hill coefficient)” for short) ([1]; T cells of individual CVI patients #1-#7) was 1.34 and 1.38 and 2.03 and 1.39 and 1.46 and 1.47 and 1.26. The IC50 ([1]; T cells of individual CVI patients #1-#7, read-out: Inhibition of proliferation by 8-CPT-cAMP (IC50)) was 3.68 µM and 3.36 µM and 3.16 µM and 2.66 µM and 2.34 µM and 2.98 µM and 2.26 µM, the “Inhibition … (−Hill coefficient)” value ([1]; median in 7 CVI patients) was 1.39^§ and the IC50 ([1]; median in 7 CVI patients, read-out: Inhibition of proliferation by 8-CPT-cAMP (IC50)) was 2.98 µM. The “Inhibition … (−Hill coefficient)” value ([1]; median in 8 healthy controls) was 1.59, the IC50 ([1]; median in 8 healthy controls, read-out: Inhibition of proliferation by 8-CPT-cAMP (IC50)) was 4.59 µM and the IC50 ([1]; one healthy control, FIG. 4B, read-out: IC50, inhibition of anti-CD3 stimulated T lymphocyte proliferation) was 4.66 µM. The IC50 ([1]; one representative CVI patient, FIG. 4B, read-out: IC50, inhibition of anti-CD3 stimulated T lymphocyte proliferation) was 2.26 µM, the “T cell proliferation in presence of cAMP analog” value ([2]; mock transfected normal T cells, 8-CPT-cAMP 12.5 μM, FIG. 8) was “approximately 20 % of control” and the IC50 ([2]; normal T cells incubated with liposomes and Ht31 peptide (35 μM), read-out: apparent IC50, inhibition of TCR/CD3 stimulated proliferation) was 4.8 µM. The IC50 ([2]; normal T cells mock transfected with liposomes only, read-out: IC50, inhibition of TCR/CD3 stimulated proliferation) was ~1.8 µM and 1.8 µM.
